From patent US7745474B2, “Imidazole derivatives for the treatment of gastrointestinal disorders” (AstraZeneca AB, priority 2005, dated 2010) come the findings set out here.

This assay addresses T1, GABAB receptor (GABABR1a/GABABR2 heterodimer) (Homo sapiens, UniProt O75899+Q9UBS5).
T1 construct: expressed in transfected cells
Kind of assay: [35S]-GTPγS binding assay, potency of positive allosteric modulator on GABA EC50. The format is biochemical. Conditions: potency of the modulator: concentration required to reduce GABA's EC50 by 50%. From the text: GABABR1a and GABABR2 were cloned from human brain cDNA and subcloned into pCI-Neo (Promega) and pALTER-1 (Promega), respectively. A GABABR1a-Gαqi5 fusion protein expression vector was constructed using the pCI-Neo-GABABR1a cDNA plasmid and pLEC1-Gαqi5 (Molecular Devices, CA). In order to make the Gαqi5 pertussis toxin insensitive, Cys356 was mutated to Gly using standard PCR methodology with the primers 5′-[…]-3 (forward) and 5′-GCGGCCG […]-3′ (reverse). The Gαqi5mut cDNA was ligated into the BamnHI and NotI sites of pcDNA3.0 (Invitrogen). The GABABR1a coding sequence was amplified by PCR from pCI-Neo-GABABR1a using the primers, 5′-[…]-3′ (forward) and 5′-[…]-3′ (reverse) and subdloned into the BamHI site of pcDNA3.0-Gαqi5mut.
For generation of stable cell lines, CHO-K1 cells were grown in Nut mix F-12 (Ham) media supplemented with 10% FBS, 100 U/ml Penicillin and 100 μg/nl Streptomycin at 37° C. in a humidified CO2-incubator. […]
[^35S]-GTPγS binding assays were performed at 30° C. for 45 min in membrane buffer (100 mM NaCl, […], 1 mM EDTA, 50 mM HEPES, pH 7.4) containing 0.025 μg/μl of membrane protein (prepared from the cell lines described above) with 0.01% bovine serum albumin (fatty acid free), 10 μM GDP, 100 μM DTT and 0.53 nM [^35S]-GTPγS (Amersham-Pharmacia Biotech) in a final volume of 200 μl. Nonspecific binding was determined in the presence of 20 μM GTPγS. […]
A general note: Binding of GTPγS marks nucleotide exchange on a G protein.

Broadly, the EC50 is the concentration that produces a half-maximal response. A higher EC50 goes with a less potent agent.

T1 sequence (Q9UBS5 15-961 limits assumed): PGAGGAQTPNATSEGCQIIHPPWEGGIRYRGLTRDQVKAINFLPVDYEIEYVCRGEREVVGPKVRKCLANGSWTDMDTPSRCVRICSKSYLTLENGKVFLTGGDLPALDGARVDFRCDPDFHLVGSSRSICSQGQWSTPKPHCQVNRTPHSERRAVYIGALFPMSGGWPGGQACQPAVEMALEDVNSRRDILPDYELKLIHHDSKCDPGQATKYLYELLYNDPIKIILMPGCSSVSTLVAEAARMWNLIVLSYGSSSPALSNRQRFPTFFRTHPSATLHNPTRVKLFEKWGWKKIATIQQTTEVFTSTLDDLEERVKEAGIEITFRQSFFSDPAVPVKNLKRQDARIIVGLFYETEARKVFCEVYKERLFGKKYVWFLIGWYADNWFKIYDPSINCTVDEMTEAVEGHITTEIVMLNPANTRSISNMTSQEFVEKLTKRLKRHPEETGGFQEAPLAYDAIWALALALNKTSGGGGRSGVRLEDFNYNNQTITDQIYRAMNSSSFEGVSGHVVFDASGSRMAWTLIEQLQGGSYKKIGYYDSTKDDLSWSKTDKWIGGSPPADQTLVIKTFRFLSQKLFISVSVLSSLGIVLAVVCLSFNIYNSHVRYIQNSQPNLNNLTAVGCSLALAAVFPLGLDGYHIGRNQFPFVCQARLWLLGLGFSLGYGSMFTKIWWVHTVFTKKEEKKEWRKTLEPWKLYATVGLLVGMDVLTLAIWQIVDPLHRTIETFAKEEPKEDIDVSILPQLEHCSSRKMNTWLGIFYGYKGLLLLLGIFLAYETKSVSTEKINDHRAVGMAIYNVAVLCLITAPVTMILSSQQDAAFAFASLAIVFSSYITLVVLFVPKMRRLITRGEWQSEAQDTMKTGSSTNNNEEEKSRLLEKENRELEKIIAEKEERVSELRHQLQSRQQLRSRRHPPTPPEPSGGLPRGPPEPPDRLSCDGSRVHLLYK
T1 sequence (O75899 42-941): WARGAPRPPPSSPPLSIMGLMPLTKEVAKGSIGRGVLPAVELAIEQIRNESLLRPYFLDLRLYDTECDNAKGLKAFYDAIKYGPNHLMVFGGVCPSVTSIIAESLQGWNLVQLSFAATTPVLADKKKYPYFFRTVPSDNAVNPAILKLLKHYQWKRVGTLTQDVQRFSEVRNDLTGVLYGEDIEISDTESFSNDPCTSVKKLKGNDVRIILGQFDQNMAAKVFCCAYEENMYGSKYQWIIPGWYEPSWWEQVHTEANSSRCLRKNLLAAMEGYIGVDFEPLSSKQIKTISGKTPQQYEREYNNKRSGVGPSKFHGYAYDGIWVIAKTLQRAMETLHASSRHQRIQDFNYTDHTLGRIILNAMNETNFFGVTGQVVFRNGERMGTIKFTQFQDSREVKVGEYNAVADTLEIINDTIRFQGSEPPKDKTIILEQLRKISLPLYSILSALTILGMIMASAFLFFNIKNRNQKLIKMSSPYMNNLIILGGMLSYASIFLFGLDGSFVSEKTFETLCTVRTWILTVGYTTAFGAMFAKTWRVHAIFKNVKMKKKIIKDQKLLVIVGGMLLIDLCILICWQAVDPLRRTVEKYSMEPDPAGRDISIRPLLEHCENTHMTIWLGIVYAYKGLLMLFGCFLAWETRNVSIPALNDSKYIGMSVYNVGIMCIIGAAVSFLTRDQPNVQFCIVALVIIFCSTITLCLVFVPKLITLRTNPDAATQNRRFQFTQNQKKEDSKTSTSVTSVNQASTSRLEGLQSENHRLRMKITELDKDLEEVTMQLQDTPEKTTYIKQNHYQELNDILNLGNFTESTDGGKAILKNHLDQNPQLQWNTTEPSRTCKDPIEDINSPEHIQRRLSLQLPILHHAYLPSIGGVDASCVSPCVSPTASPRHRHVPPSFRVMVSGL

Compound `CN(C)c1nc(/N=C(/c2ccc(Cl)cc2)N2CCCC2)c(C(=O)OC(C)(C)C)n1-c1ccccc1` [Example 2, tert-butyl 4-{[(1Z)-(4-chlorophenyl)(pyrrolidin-1-yl)methylene]amino}-2-(dimethylamino)-1-phenyl-1H-imidazole-5-carboxylate] yielded an EC50 of 2380 nM.
Then `CN(C)c1nc(NC(=S)C2COc3ccccc3O2)c(C(=O)OC(C)(C)C)n1-c1ccccc1` (centres unmarked) [Example 6, tert-butyl 4-[(2,3-dihydro-1,4-benzodioxin-2-ylcarbonothioyl)amino]-2-(dimethylamino)-1-phenyl-1H-imidazole-5-carboxylate], with 2270 nM.
